Patent US20080193411A1, “Anti-viral Compounds” (Genelabs Technologies, Inc., priority 2006, published 2008)

tested on: HCV replication; experiment: HCV replicon assay (luciferase), ET (Huh-lucubineo-ET) cell line; assay type: cell-based; conditions: Hepatitis C virus; tested at 10 μM; ET (Huh-lucubineo-ET) replicon cells; luciferase activity 48-72 hours; relative to no compound control
Method: A cell line, ET (Huh-lucubineo-ET) was used for screening of compounds of the present invention for inhibiting HCV replication. The ET cell line was stably transfected with RNA transcripts harboring a I389luc-ubi-neo/NS3-3′/ET; replicon with firefly luciferase-ubiquitin-neomycin phosphotransferase fusion protein and EMCV-IRES driven NS3-5B polyprotein containing the cell culture adaptive mutations (E1202G; T1280I; K1846T) (Krieger at al, 2001 and unpublished). The ET cells were grown in DMEM (Dulbeco's Modified Eagle's Medium), supplemented with 10% fetal calf serum, 2 mM Glutamine, Penicillin (100 IU/mL)/Streptomycin (100 μg/mL), 1× nonessential amino acids, and 250 μg/mL G418 (“Geneticin”). They were all available through Life Technologies (Bethesda, Md.). The cells were plated at 0.5-1.0×10^4 cells/well in the 96 well plates and incubated for 24 hrs before adding testing compounds. Then the compounds were added to the cells to achieve a final concentration of 0.1 nM to 50 μM and a final DMSO concentration of 0.5%. Luciferase activity were measured 48-72 hours later by adding a lysis buffer and the substrate (Catalog number Glo-lysis buffer E2661 and Bright-Glo luciferase system E2620 Promega, Madison, Wis.). Cells should not be too confluent during the assay. Percent inhibition of replication was plotted relative to no compound control. Under the same condition, cytotoxicity of the compounds was determined using cell proliferation reagent, WST-1 (Roche, Germany). The compounds showing antiviral activities, but no significant cytotoxicities were chosen to determine EC50 and TC50. For these determinations, a 10 point 2-fold serial dilution for each compound was used, which spans a concentration range of 1000 fold. EC50 and similarly TC50 values were calculated by fitting % inhibition at each concentration to the following equation:
% inhibition=100%/[(IC50/[I])^b+1]
where b is Hill's coefficient.
In some preferred embodiments compounds of Formula I will have a % inhibition of at least 20% when tested at 10 μM. In other embodiments the compounds of Formula I will have a % inhibition of at least 50% when tested at 10 μM.

Compound | inhibition at 10 µM
Cc1nc2cc(-c3ccc4nc([C@@H]5CCCN5C(=O)OCc5ccccc5)[nH]c4c3)ccc2s1 [Compound 4051, (S)-2-[6-(2-Methyl-benzothiazol-5-yl)-1H-benzoimidazol-2-yl]-pyrrolidine-1-carboxylic acid benzyl ester] | 32.8%
O=C(NC1CC1)c1ccc(-c2ccc([C@@H]3CCCN3C(=O)OCc3ccccc3)cc2)cc1 (stereo in doubt) [Compound 4044, 2-(4′-Cyclopropylcarbamoyl-biphenyl-4-yl)-pyrrolidine-1-carboxylic acid benzyl ester] | 53.1%
O=C(OCc1ccccc1)N1CCC[C@H]1c1nc2ccc(-c3ccc4[nH]ccc4c3)cc2[nH]1 [Compound 4035, (S)-2-[6-(1H-Indol-5-yl)-1H-benzoimidazol-2-yl]-pyrrolidine-1-carboxylic acid benzyl ester] | 99.9%
CC(=O)c1cccc(-c2ccc3nc([C@@H]4CCCN4C(=O)OCc4ccccc4)[nH]c3c2)c1 [Compound 4045, (S)-2-[6-(3-Acetyl-phenyl)-1H-benzoimidazol-2-yl]-pyrrolidine-1-carboxylic acid benzyl ester] | 99.8%
O=C(NC1CC1)c1ccc(-c2csc(NC[C@@H]3CCCN3C(=O)OCc3ccccc3)n2)cc1 [Compound 4055, (S)-2-{[4-(4-Cyclopropylcarbamoyl-phenyl)-thiazol-2-ylamino]-methyl}-pyrrolidine-1-carboxylic acid benzyl ester] | 44%
O=C(Nc1ccc(-c2cccc(C#C[C@@H]3CCCN3C(=O)OCc3ccccc3)c2)cc1)C1CC1 [Compound 4004, (S)-2-[4′-(Cyclopropanecarbonyl-amino)-biphenyl-3-ylethynyl]-pyrrolidine-1-carboxylic acid benzyl ester] | 81.8%
O=C(OCc1ccccc1)N1CCC[C@H]1c1nc2ccc(-c3cccs3)cc2[nH]1 [Compound 4029, (S)-2-(6-Thiophen-2-yl-1H-benzoimidazol-2-yl)-pyrrolidine-1-carboxylic acid benzyl ester] | 78.1%
O=C(OCc1ccccc1)N1CCC[C@H]1c1nc2ccc(-c3ccc4c(c3)OCO4)cc2[nH]1 [Compound 4032, (S)-2-(6-Benzo[1,3]dioxol-5-yl-1H-benzoimidazol-2-yl)-pyrrolidine-1-carboxylic acid benzyl ester] | 25.8%
O=C(OCc1ccccc1)N1CCC[C@H]1c1nc2ccc(-c3ccc4[nH]c5ccccc5c4c3)cc2[nH]1 [Compound 4047, (S)-2-[6-(9H-Carbazol-3-yl)-1H-benzoimidazol-2-yl]-pyrrolidine-1-carboxylic acid benzyl ester] | 98.2%
O=C(NC1CC1)c1cccc(-c2ccc3nc([C@@H]4CCCN4C(=O)OCc4ccccc4)[nH]c3c2)c1 [Compound 4001, (S)-2-[6-(3-Cyclopropylcarbamoyl-phenyl)-1H-benzoimidazol-2-yl]-pyrrolidine-1-carboxylic acid benzyl ester] | 94.5%
O=C(Cc1cccc(-c2ccc([C@@H]3CCCN3C(=O)OCc3ccccc3)cc2)c1)NC1CC1 (stereo in doubt) [Compound 4043, 2-(3′-Cyclopropylcarbamoylmethyl-biphenyl-4-yl)-pyrrolidine-1-carboxylic acid benzyl ester] | 40%
O=C(OCc1ccccc1)N1CCC[C@H]1c1nc2ccc(-c3ccco3)cc2[nH]1 [Compound 4030, (S)-2-(6-Furan-2-yl-1H-benzoimidazol-2-yl)-pyrrolidine-1-carboxylic acid benzyl ester] | 66.8%
O=C(NCc1ccc(-c2cccc(C#C[C@@H]3CCCN3C(=O)OCc3ccccc3)c2)cc1)C1CC1 [Compound 4041, (S)-2-{4′-[(Cyclopropanecarbonyl-amino)-methyl]-biphenyl-3-ylethynyl}-pyrrolidine-1-carboxylic acid benzyl ester] | 45.8%
O=C(OCc1ccccc1)N1CCC[C@H]1c1nc2ccc(-c3ccccc3)cc2[nH]1 [Compound 4007, (S)-2-(6-Phenyl-1H-benzoimidazol-2-yl)-pyrrolidine-1-carboxylic acid benzyl ester] | 4.4%
O=C(Cc1ccc(-c2cccc(C#C[C@@H]3CCCN3C(=O)OCc3ccccc3)c2)cc1)NC1CC1 [Compound 4024, 2-(4′-Cyclopropylcarbamoyl-methyl-biphenyl-3-ylethynyl)-pyrrolidine-1-carboxylic acid benzylester] | 45.9%
O=C(NC1CC1)c1ccc(-c2cccc(C#C[C@@H]3CCCN3C(=O)OCc3ccccc3)c2)cc1 [Compound 4060, (S)-2-(4′-Cyclopropylcarbamoyl-biphenyl-3-ylethynyl)-pyrrolidine-1-carboxylic acid benzyl ester] | 48.4%
O=C(OCc1ccccc1)N1CCC[C@H]1c1nc2ccc(-c3cc([N+](=O)[O-])c4[nH]ccc4c3)cc2[nH]1 [Compound 4033, (S)-2-[6-(7-Nitro-1H-indol-5-yl)-1H-benzoimidazol-2-yl]-pyrrolidine-1-carboxylic acid benzyl ester] | 97.5%
O=C(NCc1cccc(-c2ccc3nc([C@@H]4CCCN4C(=O)OCc4ccccc4)[nH]c3c2)c1)C1CC1 [Compound 4057, (S)-2-(6-{3-[(Cyclopropanecarbonyl-amino)-methyl]-phenyl}-1H-benzoimidazol-2-yl)-pyrrolidine-1-carboxylic acid benzyl ester] | 99.4%
O=C(NC1CC1)c1ccc(-c2ccc3nc([C@@H]4CCCN4C(=O)OCc4ccccc4)sc3c2)cc1 [Compound 4022, 2-[6-(4-Cyclopropylcarbamoyl-phenyl)-benzothiazol-2-yl]-pyrrolidine-1-carboxylic acid benzylester] | 14.9%
O=C(OCc1ccccc1)N1CCC[C@H]1c1nc2ccc(-c3ccc4[nH]ccc4c3)cc2o1 [Compound 4039, (S)-2-[6-(1H-Indol-5-yl)-benzooxazol-2-yl]-pyrrolidine-1-carboxylic acid benzyl ester] | 49.6%
O=C(NC1CC1)c1ccc(-c2ccc3nc([C@@H]4CCCN4C(=O)OCc4ccccc4)oc3c2)cc1 [Compound 4019, (S)-2-[6-(4-Cyclopropylcarbamoyl-phenyl)-benzooxazol-2-yl]-pyrrolidine-1-carboxylic acid benzyl ester] | 50.5%
O=C(OCc1ccccc1)N1CCC[C@H]1c1nc2ccc(-c3cccc4cc[nH]c34)cc2[nH]1 [Compound 4014, (S)-2-[6-(1H-Indol-7-yl)-1H-benzoimidazol-2-yl]-pyrrolidine-1-carboxylic acid benzyl ester] | 12.7%
N#Cc1ccc(-c2ccc3nc([C@@H]4CCCN4C(=O)OCc4ccccc4)[nH]c3c2)cc1 [Compound 4049, (S)-2-[6-(4-Cyano-phenyl)-1H-benzoimidazol-2-yl]-pyrrolidine-1-carboxylic acid benzyl ester] | 20%
Nc1ccc(-c2ccc3nc([C@@H]4CCCN4C(=O)OCc4ccccc4)[nH]c3c2)cc1 [Compound 4008, (S)-2-[6-(4-Amino-phenyl)-1H-benzoimidazol-2-yl]-pyrrolidine-1-carboxylic acid benzyl ester] | 13.6%
O=C(NC1CC1)c1ccc(-c2ccc3nc([C@@H]4CCCN4C(=O)OCc4ccccc4)[nH]c3c2)cc1 [Compound 4020, (S)-2-[6-(4-Cyclopropylcarbamoyl-phenyl)-1H-benzoimidazol-2-yl]-pyrrolidine-1-carboxylic acid benzyl ester] | 96.1%
COc1ccc(-c2ccc3nc([C@@H]4CCCN4C(=O)OCc4ccccc4)[nH]c3c2)c(OC)c1 [Compound 4017, (S)-2-[6-(2,4-Dimethoxy-phenyl)-1H-benzoimidazol-2-yl]-pyrrolidine-1-carboxylic acid benzyl ester] | 42.4%
O=C(Cc1ccc(-c2ccc3nc([C@@H]4CCCN4C(=O)OCc4ccccc4)[nH]c3c2)cc1)NC1CC1 [Compound 4021, (S)-2-[6-(4-Cyclopropylcarbamoylmethyl-phenyl)-1H-benzoimidazol-2-yl]-pyrrolidine-1-carboxylic acid benzyl ester] | 64.5%
O=C(Nc1cccc(-c2ccc3nc([C@@H]4CCCN4C(=O)OCc4ccccc4)[nH]c3c2)c1)C1CC1 [Compound 4037, (S)-2-{6-[3-(Cyclopropanecarbonyl-amino)-phenyl]-1H-benzoimidazol-2-yl}-pyrrolidine-1-carboxylic acid benzyl ester] | 97.6%
O=C(OCc1ccccc1)N1CCC[C@H]1c1nc2ccc(-c3ccc4[nH]ccc4c3)cc2s1 [Compound 4005, (S)-2-[6-(1H-Indol-5-yl)-benzothiazol-2-yl]-pyrrolidine-1-carboxylic acid benzyl ester] | 1.7%
